The source of these data is PMC2747657 (Bioorganic & medicinal chemistry, 2009).

Like-named read-outs stand apart in the source and are kept apart here. Where only a bound is given, the exact number is not on record here.

Experiment [1] addresses 5-HTT (Rattus norvegicus, UniProt P31652). The experiment in a line: Inhibition of [3H]paroxetine binding at the 5-HTT. The conditions noted are these: for Ki: 5-HTT, Ki [3H]paroxetine; for NET/5-HTT Ratio: ratio of Ki values of NET/5-HTT, selectivity for the 5-HTT relative to the NET.
Experiment [2] deals with T1, NET (Rattus norvegicus, UniProt Q63380). Kind of experiment: Inhibition of [3H]nisoxetine binding at the NET.
Experiment [3] addresses DAT (Rattus norvegicus, UniProt P23977). Kind of experiment: Inhibition of [3H]WIN35,428 binding at the DAT.
Experiment [4] deals with T1, NET. The conditions noted are these: read-out: NET, Ki [3H]nisoxetine; inhibition of [3H]nisoxetine binding; cited from earlier work.
Where [5] appears, read: relative to N-methyl compound 7a.

5-HTT, sequence (P31652 whole entry): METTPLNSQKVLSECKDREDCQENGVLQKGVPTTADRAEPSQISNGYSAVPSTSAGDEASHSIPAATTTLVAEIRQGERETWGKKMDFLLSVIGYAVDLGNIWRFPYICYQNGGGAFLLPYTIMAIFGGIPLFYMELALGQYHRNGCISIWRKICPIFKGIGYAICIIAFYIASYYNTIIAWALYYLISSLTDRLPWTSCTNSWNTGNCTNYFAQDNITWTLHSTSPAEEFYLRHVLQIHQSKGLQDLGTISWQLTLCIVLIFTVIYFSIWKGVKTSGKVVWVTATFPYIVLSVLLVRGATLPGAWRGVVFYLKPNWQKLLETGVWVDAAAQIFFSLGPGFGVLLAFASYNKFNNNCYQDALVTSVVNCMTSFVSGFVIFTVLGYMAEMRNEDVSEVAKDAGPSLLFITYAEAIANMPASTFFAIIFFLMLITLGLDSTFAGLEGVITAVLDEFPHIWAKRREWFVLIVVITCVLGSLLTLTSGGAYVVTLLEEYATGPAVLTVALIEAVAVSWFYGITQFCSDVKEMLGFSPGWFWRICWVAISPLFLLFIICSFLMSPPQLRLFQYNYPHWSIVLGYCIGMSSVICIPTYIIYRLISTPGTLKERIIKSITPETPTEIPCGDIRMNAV
T1 sequence (Q63380 1-617): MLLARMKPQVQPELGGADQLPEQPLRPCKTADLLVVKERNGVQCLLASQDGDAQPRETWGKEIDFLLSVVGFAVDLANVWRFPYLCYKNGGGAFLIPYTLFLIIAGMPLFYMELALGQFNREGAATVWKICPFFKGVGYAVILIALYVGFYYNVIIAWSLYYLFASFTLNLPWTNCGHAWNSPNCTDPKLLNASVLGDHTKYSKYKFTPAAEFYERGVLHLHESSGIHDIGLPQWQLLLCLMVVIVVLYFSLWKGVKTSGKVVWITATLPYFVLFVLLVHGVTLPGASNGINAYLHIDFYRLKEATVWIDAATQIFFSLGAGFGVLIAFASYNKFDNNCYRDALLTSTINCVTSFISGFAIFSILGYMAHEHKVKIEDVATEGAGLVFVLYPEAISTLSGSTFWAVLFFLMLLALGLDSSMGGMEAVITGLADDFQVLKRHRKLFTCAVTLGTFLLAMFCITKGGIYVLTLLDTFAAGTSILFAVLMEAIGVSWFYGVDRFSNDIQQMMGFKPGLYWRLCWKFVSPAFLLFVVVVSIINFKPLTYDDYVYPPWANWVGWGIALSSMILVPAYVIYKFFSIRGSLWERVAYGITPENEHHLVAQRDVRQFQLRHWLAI
DAT, sequence (P23977 whole entry): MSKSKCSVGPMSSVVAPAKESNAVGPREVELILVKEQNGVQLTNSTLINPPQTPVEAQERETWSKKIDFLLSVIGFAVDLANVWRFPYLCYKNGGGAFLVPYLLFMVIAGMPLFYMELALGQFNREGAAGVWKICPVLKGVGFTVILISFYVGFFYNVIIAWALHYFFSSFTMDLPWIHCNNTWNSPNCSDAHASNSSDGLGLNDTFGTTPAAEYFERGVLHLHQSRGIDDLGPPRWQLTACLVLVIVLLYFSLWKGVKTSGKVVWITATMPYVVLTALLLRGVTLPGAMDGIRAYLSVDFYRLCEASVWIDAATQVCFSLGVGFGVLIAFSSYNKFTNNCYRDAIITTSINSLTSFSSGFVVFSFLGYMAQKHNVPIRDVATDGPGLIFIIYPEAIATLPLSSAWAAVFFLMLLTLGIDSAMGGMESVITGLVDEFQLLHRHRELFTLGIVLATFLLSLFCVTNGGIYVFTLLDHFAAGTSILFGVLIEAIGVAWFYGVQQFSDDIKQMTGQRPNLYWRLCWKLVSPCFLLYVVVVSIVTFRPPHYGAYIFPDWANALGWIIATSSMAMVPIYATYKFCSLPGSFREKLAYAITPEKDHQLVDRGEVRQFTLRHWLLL

Take `COC(=O)[C@H]1[C@@H](c2ccc(SC)cc2)C[C@@H]2CC[C@H]1N2C` [7a, 3β-(4-Methylthiophenyl)tropane-2β-carboxylic acid methyl ester]: in experiment [1], the Ki amounted to 220 nM and the “NET/5-HTT Ratio” value is 314-364. Further, the Ki in experiment [2] was found to be 220 ± 10 nM. Take `CCSc1ccc([C@H]2C[C@@H]3CC[C@H]([C@H]2C(=O)OC)N3C)cc1` [7b, 3β-(4-Ethylthiophenyl)tropane-2β-carboxylic acid methyl ester]: the Ki in experiment [1] worked out at 4.5 ± 0.5 nM; in experiment [2] it was 1170 ± 300 nM. For `COC(=O)[C@H]1[C@@H](c2ccc(SC(C)C)cc2)C[C@@H]2CC[C@H]1N2C` [7c, 3β-(4-Isopropylthiophenyl)tropane-2β-carboxylic acid methyl ester], in that order: 129 nM and 129 ± 2 nM. As for `COC(=O)[C@H]1[C@@H](c2ccc(SC(F)(F)F)cc2)C[C@@H]2CC[C@H]1N2C` [7d, 3β-(4-Trifluoromethylthiophenyl)tropane-2β-carboxylic acid methyl ester], the affinity in experiment [2] corresponds to a Ki of 1900 ± 300 nM.

Consider `COC(=O)[C@H]1[C@@H](c2ccc(SC)c(Br)c2)C[C@@H]2CC[C@H]1N2C` [7e, 3β-(3-Bromo-4-methylthiophenyl)tropane-2β-carboxylic acid methyl ester], for which, in experiment [2], the Ki was 121 ± 12 nM. `COC(=O)[C@H]1[C@@H](c2ccc([S+](C)[O-])c(Br)c2)C[C@@H]2CC[C@H]1N2C` (stereo partly drawn) [7f, 3β-(3-bromo-4-methylsulfinylphenyl)tropane-2β-carboxylic acid methyl ester] had a Ki in experiment [2] of 690 ± 80 nM. With `COC(=O)[C@H]1[C@@H](c2ccc([S+](C)[O-])cc2)C[C@@H]2CC[C@H]1N2C` (stereo partly drawn) [7g, 3β-(4-methylsulfinylphenyl)tropane-2β-carboxylic acid methyl ester], the inhibitory constant (Ki) was determined as 4.3 ± 0.6 nM in experiment [1] and 515 ± 60 nM in experiment [2]. Take `COC(=O)[C@H]1[C@@H](c2ccc(S(C)(=O)=O)cc2)C[C@@H]2CC[C@H]1N2C` [7h, 3β-(4-Methylsulfonylphenyl)tropane-2β-carboxylic acid methyl ester]: in experiment [3], the IC50 was above 10000 nM. Further, the Ki in experiment [1] is 208 ± 45 nM; in experiment [2] it was above 10000 nM. As for `COC(=O)[C@@H]1C2CCC(C[C@@H]1c1ccc(SC)cc1)N2` (stereo partly drawn) [8a, 3β-(4-Methylthiophenyl)nortropane-2β-carboxylic acid methyl ester], the “fold less affinity at the DAT” value in experiment [3] (setting [5]) worked out at 3 fold. For the same compound, the “fold increase in affinity at the 5-HTT” value in experiment [1] (setting [5]) is “approximately 4 fold”. In addition, in experiment [2] (setting [5]), the “fold increase in affinity at the NET” value was around 10 fold. On to `COC(=O)[C@@H]1C2CCC(C[C@@H]1c1ccc(SC)cc1)N2CCCF` (stereo partly drawn) [9a, 3β-(4-Methylthiophenyl)-8-(3-fluoropropyl)nortropane-2β-carboxylic acid methyl ester], for which the “NET/5-HTT Ratio” value in experiment [1] is on record as 314-364. As to `C=CCN1C2CCC1[C@@H](C(=O)OC)[C@@H](c1ccc(SC)cc1)C2` (stereo partly drawn) [10a, 3β-(4-Methylthiophenyl)-8-allylnortropane-2β-carboxylic acid methyl ester], the “NET/5-HTT Ratio” value in experiment [1] is on record as 314-364. Turning to `COC(=O)[C@H]1[C@@H](c2ccc(OC)cc2)C[C@@H]2CC[C@H]1N2C` [compound 5, 3β-(4-methoxyphenyl)tropane-2β-carboxylic acid methyl ester], the Ki in experiment [4] is 1110 ± 64 nM.
